Experimental data taken from patent US10273224B2, “Substituted pyrimidine compounds, compositions and medicinal applications thereof” (JUBILANT BIOSYS LIMITED, priority 2013, dated 2019).

target: T1, EGFR (L858R & T790M) (Homo sapiens, UniProt P00533, L858R/T790M); experiment: EGFR (L858R & T790M) inhibition assay, HTRF method; settings: biochemical HTRF; EGFR (T790M/L858R) 2.5 nM, ATP 5 μM, 60 min room temperature
T1 construct: GST; purchased Proqinase
Method: Example 25: Biological Activity: EGFR T790M Assay Protocol
The objective of the experiment is to find the IC50 for the compounds using HTRF method.
Reagents for Enzyme Assay:
1. Enzyme Assay Buffer: 60 mM HEPES (pH 7.4), 50 mM NaCl, 20 mM MgCl2, 5 mM MnCl2, filter using 0.2 µm pore size, store at 4° C.
Supplements (add fresh to the enzyme buffer): Make 1M DTT stock, 5% BSA stock and 0.1M Na3OV4 stored at 4° C. Enzyme assay buffer 50 ml, 1 M DTT 100 μl, 5% BSA 500 μl, 0.1M Na3OV4 50 μl.
2. GST-hEGFR (L858R), active: EGFR (T790M/L858R), active (Proqinase), 3.6 μM stock; 2.5 nM in final assay.
3. Gastrin Precusor-Biotinylated: Gastrin precursor (Tyr87) biotinylated peptide (EEAY*GWM), Cell Signaling Tech 1310, Lot-7, Want final 0.5 μM in assay
4. ATP: 10 mM stock in 100 μl Enzyme assay buffer pH 7.4 prepared freshly, want 5 μM in final assay.
5. Test compounds: Dissolve powders in 100% DMSO to a final stock concentration of 10 mM (volume in μL to add for 10 mM=mg powder×10^5/MW). Final comp concentration in the assay plate is starting at 10 μM.
1. HTRF buffer: 50 mM Tris-HCl, pH-7.5, 100 mM NaCl, 0.1% BSA, 0.05% Tween20, 0.5 mM EDTA, filter using 0.2 µm pore size, store at 4° C.
Phycolink® Streptavidin-Allophycocyanin (SA-APC) Prozyme, Cat. #PJ25S, Lot #896 085, 2.06 mg/mL, APC concentration is 11.6 μM, streptavidin concentration is 15.5 μM. Want 12 nM final in assay (based on streptavidin concentration).
2. Europium-W1024-PT-66 Anti Phospho Tyrosine Antibody: Perkin Elmer (AD0068), monoclonal IgG1 that recognizes phospho tyrosine peptide 100 μg/ml stock. Want 0.1 nM final in assay.
• 1. Make the compound dilution by TECAN as per the above scheme. • 2. Add 16 μl of diluted compound to the assay plate by using TECAN • 3. Add 10 μl of enzyme mix to each well except mins. • 4. Add 20 μl of substrate and ATP mix into each well of the assay plate manually. • 5. Incubate the plate at room temperature for 60 min with shaking. • 6. Meanwhile prepare the HTRF mix and add 75 μl to the HTRF plate. • 7. When the incubation is over, transfer 10 μl of the reaction mixture to the HTRF assay plate and incubate for 30 min at room temperature with shaking. • 8. Take the reading in Pherastar (ext 337 nm, em 665 & 620 nm). • 9. Analyze the results using Graphpad prism after calculation the z factor, signal window and % inhibition to get the IC50.
Compounds having IC50<10 nM are designated as “A”; 10-100 nM are designated as “B”; and >100 nM as “C”.

T1 sequence (P00533 25-1210 T790M/L858R): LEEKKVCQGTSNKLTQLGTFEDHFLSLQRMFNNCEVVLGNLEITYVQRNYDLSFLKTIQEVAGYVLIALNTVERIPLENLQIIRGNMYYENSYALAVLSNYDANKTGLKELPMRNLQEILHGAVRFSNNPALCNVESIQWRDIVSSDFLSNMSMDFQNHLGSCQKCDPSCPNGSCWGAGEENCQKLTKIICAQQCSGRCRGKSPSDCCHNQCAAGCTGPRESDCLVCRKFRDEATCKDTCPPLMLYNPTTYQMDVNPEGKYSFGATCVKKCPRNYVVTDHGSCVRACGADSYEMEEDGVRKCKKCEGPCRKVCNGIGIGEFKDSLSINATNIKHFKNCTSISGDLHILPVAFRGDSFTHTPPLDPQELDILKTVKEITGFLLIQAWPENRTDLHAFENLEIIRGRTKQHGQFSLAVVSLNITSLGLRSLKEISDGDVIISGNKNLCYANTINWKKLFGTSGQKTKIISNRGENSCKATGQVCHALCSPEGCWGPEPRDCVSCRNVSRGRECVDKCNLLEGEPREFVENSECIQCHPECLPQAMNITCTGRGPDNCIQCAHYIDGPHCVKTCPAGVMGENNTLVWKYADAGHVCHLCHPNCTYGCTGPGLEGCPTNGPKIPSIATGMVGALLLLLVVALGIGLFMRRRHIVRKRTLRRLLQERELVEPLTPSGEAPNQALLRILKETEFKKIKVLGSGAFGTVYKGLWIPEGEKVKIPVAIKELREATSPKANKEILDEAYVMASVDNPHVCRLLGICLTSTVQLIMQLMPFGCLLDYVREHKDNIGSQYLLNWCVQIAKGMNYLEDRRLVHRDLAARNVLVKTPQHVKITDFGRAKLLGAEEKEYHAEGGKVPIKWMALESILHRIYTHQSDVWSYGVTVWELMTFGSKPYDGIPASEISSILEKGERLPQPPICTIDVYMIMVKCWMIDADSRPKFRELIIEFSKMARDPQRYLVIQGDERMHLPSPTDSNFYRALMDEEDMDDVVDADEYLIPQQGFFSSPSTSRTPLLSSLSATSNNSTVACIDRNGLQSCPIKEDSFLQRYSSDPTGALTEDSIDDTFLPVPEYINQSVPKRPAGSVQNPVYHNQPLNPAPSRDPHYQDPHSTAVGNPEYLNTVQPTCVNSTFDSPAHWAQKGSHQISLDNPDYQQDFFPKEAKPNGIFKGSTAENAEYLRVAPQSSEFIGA

| Structure (SMILES) | IC50 [nM] |
| --- | --- |
| C=CC(=O)Nc1cc(Nc2nc(Nc3cnn(C)c3)ncc2Cl)c(F)cc1F [Compound I-68, N-(5-((5-chloro-2-((1-methyl-1H-pyrazol-4-yl)amino)pyrimidin-4-yl)amino)-2,4-difluorophenyl)acrylamide] | 10 to 100 |
| CN(C)C/C=C/C(=O)NC1CCCC(Oc2nc(Nc3cnn(C)c3)ncc2Cl)C1 (single isomer, unassigned) [I-91 (Isomer 2), (E)-N-(3-((5-chloro-2-((1-methyl-1H-pyrazol-4-yl)amino)pyrimidin-4-yl)oxy)cyclohexyl)-4-(dimethylamino)but-2-enamide] | > 100 |
| C=CC(=O)Nc1cccc(Nc2nc(Nc3cnn(C4CCN(C)CC4)c3)ncc2Cl)c1 [Compound I-1, N-(3-((5-chloro-2-((1-(1-methylpiperidin-4-yl)-1H-pyrazol-4-yl)amino)pyrimidin-4-yl)amino)phenyl)acrylamide] | < 10 |
| C=CC(=O)Nc1cccc(Nc2nc(Nc3cnn(C4CCOCC4)c3)ncc2Cl)c1 [Compound I-45, N-(3-((5-chloro-2-((1-(tetrahydro-2H-pyran-4-yl)-1H-pyrazol-4-yl)amino)pyrimidin-4-yl)amino)phenyl)acrylamide] | 10 to 100 |
| C=CC(=O)Nc1cccc(Nc2nc(Nc3cnn(S(C)(=O)=O)c3)ncc2Cl)c1 [Compound I-10, N-(3-((5-chloro-2-((1-(methylsulfonyl)-1H-pyrazol-4-yl)amino)pyrimidin-4-yl)amino)phenyl)acrylamide] | 10 to 100 |
| C=CC(=O)Nc1cccc(Nc2nc(Nc3cnn(S(=O)(=O)C4CC4)c3)ncc2Cl)c1 [Compound I-22, N-(3-((5-chloro-2-((1-(cyclopropylsulfonyl)-1H-pyrazol-4-yl)amino)pyrimidin-4-yl)amino)phenyl)acrylamide] | 10 to 100 |
| C=CC(=O)Nc1cccc(Nc2nc(Nc3cn(CCOC)nc3C)ncc2Cl)c1 [Compound I-2, N-(3-((5-chloro-2-((1-(2-methoxyethyl)-3-methyl-1H-pyrazol-4-yl)amino)pyrimidin-4-yl)amino)phenyl)acrylamide] | > 100 |
| C=CC(=O)Nc1cccc(Oc2nc(Nc3cnn(C4CCN(C)CC4)c3)ncc2Cl)c1 [Compound I-77, N-(3-((5-chloro-2-((1-(1-methylpiperidin-4-yl)-1H-pyrazol-4-yl)amino)pyrimidin-4-yl)oxy)phenyl)acrylamide] | 10 to 100 |
| C=CC(=O)Nc1cccc(Nc2nc(Nc3c(C)nn(C)c3C)ncc2Cl)c1 [Compound I-11, N-(3-((5-chloro-2-((1,3,5-trimethyl-1H-pyrazol-4-yl)amino)pyrimidin-4-yl)amino)phenyl)acrylamide] | > 100 |
| C=CC(=O)NC1CCCC(Oc2nc(Nc3cnn(C)c3)ncc2Cl)C1 (single isomer, unassigned) [I-88 (Isomer 1), N-(3-((5-chloro-2-((1-methyl-1H-pyrazol-4-yl)amino)pyrimidin-4-yl)oxy)cyclohexyl)acrylamide] | > 100 |
| C#CC(=O)Nc1cccc(Nc2nc(Nc3cnn(C)c3)ncc2Cl)c1 [Compound I-32, N-(3-((5-chloro-2-((1-methyl-1H-pyrazol-4-yl)amino)pyrimidin-4-yl)amino)phenyl)propiolamide] | 10 to 100 |
| C=CC(=O)Nc1cccc(Nc2nc(Nc3cnn(C4CCC(O)C4)c3)ncc2Cl)c1 (stereo not shown) [Compound I-36, N-(3-((5-chloro-2-((1-(3-hydroxycyclopentyl)-1H-pyrazol-4-yl)amino)pyrimidin-4-yl)amino)phenyl)acrylamide] | 10 to 100 |
| C=CC(=O)Nc1ccnc(Nc2nc(Nc3cnn(C)c3)ncc2Cl)c1 [Compound I-116, N-(2-((5-chloro-2-((1-methyl-1H-pyrazol-4-yl)amino)pyrimidin-4-yl)amino)pyridin-4-yl)acrylamide] | 10 to 100 |
| CN(C)C/C=C/C(=O)N1CCCC(Nc2nc(Nc3cnn(C)c3)ncc2Cl)C1 (single isomer, unassigned) [II-3 (Enantiomer 1), (E)-1-(3-((5-chloro-2-((1-methyl-1H-pyrazol-4-yl)amino)pyrimidin-4-yl)amino)piperidin-1-yl)-4-(dimethylamino)but-2-en-1-one] | > 100 |
| C=CC(=O)NC1CCCC(Nc2nc(Nc3cc(Cl)n(C)n3)ncc2Cl)C1 (stereo not shown) [Compound I-97, N-(3-((5-chloro-2-((5-chloro-1-methyl-1H-pyrazol-3-yl)amino)pyrimidin-4-yl)amino)cyclohexyl)acrylamide] | > 100 |
| C=CC(=O)N1CCCC(Oc2nc(Nc3cnn(C)c3)ncc2Cl)C1 (single isomer, unassigned) [II-13 (Enantiomer 2), 1-(3-((5-chloro-2-((1-methyl-1H-pyrazol-4-yl)amino)pyrimidin-4-yl)oxy)piperidin-1-yl)prop-2-en-1-one] | > 100 |
| C=CC(=O)Nc1cccc(Oc2nc(Nc3cnn(CC(C)(C)O)c3)ncc2Cl)c1 [Compound I-81, N-(3-((5-chloro-2-((1-(2-hydroxy-2-methylpropyl)-1H-pyrazol-4-yl)amino)pyrimidin-4-yl)oxy)phenyl)acrylamide] | > 100 |
| C=CC(=O)Nc1ccc(F)c(N(C)c2nc(Nc3cnn(C)c3)ncc2Cl)c1 [Compound I-111, N-(3-((5-chloro-2-((1-methyl-1H-pyrazol-4-yl)amino)pyrimidin-4-yl)(methyl)amino)-4-fluorophenyl)acrylamide] | < 10 |
| C=CC(=O)Nc1cccc(Nc2nc(Nc3cnn(C4CCCC(O)C4)c3)ncc2Cl)c1 (stereo not shown) [Compound I-38, N-(3-((5-chloro-2-((1-(3-hydroxycyclohexyl)-1H-pyrazol-4-yl)amino)pyrimidin-4-yl)amino)phenyl)acrylamide] | > 100 |
| C=CC(=O)N1CCCC(Nc2nc(Nc3cnn(C4CCC4)c3)ncc2Cl)C1 (single isomer, unassigned) [II-5 (Enantiomer 1), 1-(3-((5-chloro-2-((1-cyclobutyl-1H-pyrazol-4-yl)amino)pyrimidin-4-yl)amino)piperidin-1-yl)prop-2-en-1-one] | > 100 |
| C=CC(=O)Nc1cccc(Nc2nc(Nc3cnn(C4CCN(C)CC4)c3)ncc2C(F)(F)F)c1 [Compound I-14, N-(3-((2-((1-(1-methylpiperidin-4-yl)-1H-pyrazol-4-yl)amino)-5-(trifluoromethyl)pyrimidin-4-yl)amino)phenyl)acrylamide] | > 100 |
| C=CC(=O)NC1CCCC(Oc2nc(Nc3cnn(C)c3)ncc2Cl)C1 (single isomer, unassigned) [I-89 (Isomer 2), N-(3-((5-chloro-2-((1-methyl-1H-pyrazol-4-yl)amino)pyrimidin-4-yl)oxy)cyclohexyl)acrylamide] | > 100 |
| C=CC(=O)N1CCC(Nc2nc(Nc3cnn(C)c3)ncc2Cl)CC1 [II-8, 1-(4-((5-chloro-2-((1-methyl-1H-pyrazol-4-yl)amino)pyrimidin-4-yl)amino)piperidin-1-yl)prop-2-en-1-one] | > 100 |
| C=CC(=O)Nc1cccc(Nc2nc(Nc3cnn(Cc4cccc(C)n4)c3)ncc2Cl)c1 [Compound I-52, N-(3-((5-chloro-2-((1-((6-methylpyridin-2-yl)methyl)-1H-pyrazol-4-yl)amino)pyrimidin-4-yl)amino)phenyl)acrylamide] | > 100 |
| C=CC(=O)Nc1cccc(Nc2nc(Nc3cnn(C4CCNC(=O)C4)c3)ncc2Cl)c1 (stereo not shown) [Compound I-43, N-(3-((5-chloro-2-((1-(2-oxopiperidin-4-yl)-1H-pyrazol-4-yl)amino)pyrimidin-4-yl)amino)phenyl)acrylamide] | 10 to 100 |
